Measurements reported in patent US20240228463A1, “SODIUM CHANNEL INHIBITORS AND METHODS OF DESIGNING SAME” (Genentech, Inc., priority 2021, published 2024).
Counter-ions that a name gives are not always drawn.

What follows are compounds tested against T1, hNaV1.7 (Homo sapiens, UniProt Q15858) (assay: Patch voltage clamp electrophysiology (EP), Syncropatch 384PE, Nav1.7 in CHO cells). Conditions: holding potential −50 mV, inhibition based on 7.5 min compound incubation, read-out: hNaV1.7 EP_SP.
T1 construct: expressed in transfected cells
T1 sequence (Q15858 1-1977 isoform Q15858-3): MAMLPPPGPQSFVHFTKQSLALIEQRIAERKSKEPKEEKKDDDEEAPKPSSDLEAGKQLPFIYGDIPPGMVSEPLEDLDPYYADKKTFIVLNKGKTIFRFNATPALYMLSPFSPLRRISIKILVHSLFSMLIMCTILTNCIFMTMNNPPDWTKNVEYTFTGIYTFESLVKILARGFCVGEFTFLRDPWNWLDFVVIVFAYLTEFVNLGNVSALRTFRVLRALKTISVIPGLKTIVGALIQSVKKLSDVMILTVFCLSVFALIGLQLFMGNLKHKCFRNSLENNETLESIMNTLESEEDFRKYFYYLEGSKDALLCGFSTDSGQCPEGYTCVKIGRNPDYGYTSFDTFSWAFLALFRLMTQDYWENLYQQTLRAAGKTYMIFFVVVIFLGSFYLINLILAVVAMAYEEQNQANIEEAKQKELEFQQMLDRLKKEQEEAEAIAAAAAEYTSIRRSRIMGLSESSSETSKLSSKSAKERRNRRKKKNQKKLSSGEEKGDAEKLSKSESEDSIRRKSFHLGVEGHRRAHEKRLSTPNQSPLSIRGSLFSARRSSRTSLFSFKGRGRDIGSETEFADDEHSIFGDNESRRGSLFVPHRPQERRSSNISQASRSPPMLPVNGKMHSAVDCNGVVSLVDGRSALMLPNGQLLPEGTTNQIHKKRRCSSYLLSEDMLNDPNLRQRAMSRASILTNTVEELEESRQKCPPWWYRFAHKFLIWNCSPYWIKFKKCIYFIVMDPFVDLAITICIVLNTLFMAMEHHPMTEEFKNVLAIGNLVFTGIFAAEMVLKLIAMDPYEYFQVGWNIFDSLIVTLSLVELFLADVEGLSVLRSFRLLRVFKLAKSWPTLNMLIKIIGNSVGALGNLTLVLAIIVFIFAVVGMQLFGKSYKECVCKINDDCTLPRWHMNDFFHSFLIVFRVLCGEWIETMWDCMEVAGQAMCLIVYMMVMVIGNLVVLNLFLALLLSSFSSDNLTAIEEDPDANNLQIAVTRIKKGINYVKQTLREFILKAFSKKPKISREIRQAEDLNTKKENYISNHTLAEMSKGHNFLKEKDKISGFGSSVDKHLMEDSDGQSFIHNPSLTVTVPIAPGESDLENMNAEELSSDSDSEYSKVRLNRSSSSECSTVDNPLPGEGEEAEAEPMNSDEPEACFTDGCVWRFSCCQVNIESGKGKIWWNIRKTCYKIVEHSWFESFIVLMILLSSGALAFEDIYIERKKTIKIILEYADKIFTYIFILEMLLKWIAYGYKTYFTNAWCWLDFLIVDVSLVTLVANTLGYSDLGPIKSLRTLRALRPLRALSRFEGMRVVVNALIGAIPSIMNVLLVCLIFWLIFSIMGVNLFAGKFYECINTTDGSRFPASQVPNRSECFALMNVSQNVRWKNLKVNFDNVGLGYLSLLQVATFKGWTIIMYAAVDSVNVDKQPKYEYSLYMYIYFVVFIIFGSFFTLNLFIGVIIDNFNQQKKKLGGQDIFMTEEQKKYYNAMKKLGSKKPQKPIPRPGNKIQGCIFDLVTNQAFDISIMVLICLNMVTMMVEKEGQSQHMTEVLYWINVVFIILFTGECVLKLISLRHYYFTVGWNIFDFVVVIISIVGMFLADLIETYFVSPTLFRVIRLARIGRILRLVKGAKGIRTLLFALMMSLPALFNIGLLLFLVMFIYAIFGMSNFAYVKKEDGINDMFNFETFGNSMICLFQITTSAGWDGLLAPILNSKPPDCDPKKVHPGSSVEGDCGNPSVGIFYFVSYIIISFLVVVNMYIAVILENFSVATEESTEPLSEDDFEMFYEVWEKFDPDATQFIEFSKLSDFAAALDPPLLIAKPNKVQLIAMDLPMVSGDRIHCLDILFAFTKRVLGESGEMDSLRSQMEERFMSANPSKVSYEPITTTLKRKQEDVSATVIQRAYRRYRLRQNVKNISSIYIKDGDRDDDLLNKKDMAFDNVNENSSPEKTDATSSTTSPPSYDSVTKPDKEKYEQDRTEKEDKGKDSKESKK
Format: cell-based
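Note: Nav1.7 stably expressed from cDNA in CHO cells, holding potential of −50 mV kept for the entire experiment.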

| SMILES | IC50 |
| --- | --- |
| O=C(NS(=O)(=O)c1c(F)cc(N2CCCCC2)cc1F)c1cc(Cl)c(OCC2CCCC2)cc1F [Example 58, 5-chloro-4-(cyclopentylmethoxy)-N-((2,6-difluoro-4-(piperidin-1-yl)phenyl)-sulfonyl)-2-fluorobenzamide] | 320 nM |
| O=C(NS(=O)(=O)c1ccc2c(c1)NCCC2)c1cc(Cl)c(OCC2CCCC2)cc1F [Example 267, 5-chloro-4-(cyclopentylmethoxy)-2-fluoro-N-((1,2,3,4-tetrahydroquinolin-7-yl)sulfonyl)benzamide] | 800 nM |
| O=C(NS(=O)(=O)c1ccc(NCc2ccccc2)cc1)c1cc(Cl)c(OCC2CCCC2)cc1F [Example 84, N-((4-(benzylamino)phenyl)sulfonyl)-5-chloro-4-(cyclopentylmethoxy)-2-fluorobenzamide] | 690 nM |
| O=C(NS(=O)(=O)c1ccc(OCc2ccccc2Cl)cc1)c1cc(Cl)c(OCC2CCCC2)cc1F [Example 264, 5-chloro-N-((4-((2-chlorobenzyl)oxy)phenyl)sulfonyl)-4-(cyclopentylmethoxy)-2-fluorobenzamide] | 84 nM |
| CN(C)[C@H]1CCCC[C@@H]1Oc1ccc(S(=O)(=O)NC(=O)c2cc(Cl)c(OCC3CCCC3)cc2F)c(F)c1 [Example 66, 5-chloro-4-(cyclopentylmethoxy)-N-((4-(((1S,2S)-2-(dimethylamino)-cyclohexyl)oxy)-2-fluorophenyl)sulfonyl)-2-fluorobenzamide] | 220 nM |
| CN(C)[C@H]1CCCC[C@@H]1Nc1ccc(S(=O)(=O)Nc2nc3ncc(Br)cc3s2)c(F)c1 [Example 95, N-(6-bromothiazolo[4,5-b]pyridin-2-yl)-4-(((1S,2S)-2-(dimethylamino)-cyclohexyl)amino)-2-fluorobenzenesulfonamide] | 170 nM |
| O=C(NS(=O)(=O)N1CCC(OC2CNC2)CC1)c1cc(C2CC2)c(OCC2CCCC2)cc1F [Example 47, N-((4-(azetidin-3-yloxy)piperidin-1-yl)sulfonyl)-4-(cyclopentylmethoxy)-5-cyclopropyl-2-fluorobenzamide] | 36 nM |
| O=C(N[C@@H](C(=O)O)C1CCCCC1)c1cc(Cl)c(OCC2CCCC2)cc1F [Example 107, (R)-2-(5-chloro-4-(cyclopentylmethoxy)-2-fluorobenzamido)-2-cyclohexyl-acetic acid] | 990 nM |
| CN1CC(OC2CCN(S(=O)(=O)NC(=O)c3cc(Cl)c(Oc4ccc(Cl)c(C(F)(F)F)c4)cc3F)CC2)C1 [Example 239, 5-chloro-4-(4-chloro-3-(trifluoromethyl)phenoxy)-2-fluoro-N-((4-((1-methylazetidin-3-yl)oxy)piperidin-1-yl)sulfonyl)benzamide] | 25 nM |
| O=C(NS(=O)(=O)c1ccccc1F)c1cc(Cl)c(OCC2CCCC2)cc1F [Example 241, 5-chloro-4-(cyclopentylmethoxy)-2-fluoro-N-((2-fluorophenyl)sulfonyl)benzamide] | 65 nM |
| NCc1cccc(COc2ccc(S(=O)(=O)NC(=O)c3cc(Cl)c(OCC4CCCC4)cc3F)cc2)c1 [Example 300, N-((4-((3-(aminomethyl)benzyl)oxy)phenyl)sulfonyl)-5-chloro-4-(cyclopentylmethoxy)-2-fluorobenzamide] | 3.2 nM |
| O=C(NS(=O)(=O)c1ccc(OCc2ccccc2)cc1F)c1cc(C2CC2)c(OCC2CCCC2)cc1F [Example 70, N-((4-(benzyloxy)-2-fluorophenyl)sulfonyl)-4-(cyclopentylmethoxy)-5-cyclopropyl-2-fluorobenzamide] | 60 nM |
| CN(C)[C@H]1CCCC[C@@H]1Oc1ccc(S(=O)(=O)Nc2nc3cccc(Cl)c3s2)c(F)c1 [Example 99, N-(7-chlorobenzo[d]thiazol-2-yl)-4-(((1S,2S)-2-(dimethylamino)cyclohexyl)-oxy)-2-fluorobenzenesulfonamide] | 430 nM |
| O=C(NS(=O)(=O)CCOCc1ccccc1)c1cc(Cl)c(OCC2CCCC2)cc1F [Example 274, N-((2-(benzyloxy)ethyl)sulfonyl)-5-chloro-4-(cyclopentylmethoxy)-2-fluorobenzamide] | 230 nM |
| CN1CC(OC2CCN(S(=O)(=O)NC(=O)c3cc(C4CC4)c(OCc4ccccc4)cc3F)CC2)C1 [Example 236, 4-(benzyloxy)-5-cyclopropyl-2-fluoro-N-((4-((1-methylazetidin-3-yl)oxy)piperidin-1-yl)sulfonyl)benzamide] | 39 nM |
| CN(C)[C@H]1CCCC[C@@H]1Nc1ccc(S(=O)(=O)Nc2nccs2)c(F)c1 [Example 332, 4-(((1S,2S)-2-(dimethylamino)cyclohexyl)amino)-2-fluoro-N-(thiazol-2-yl)benzenesulfonamide] | 220 nM |
| O=C(NS(=O)(=O)c1ccc(Cn2cncn2)cc1)c1cc(Cl)c(OCC2CCCC2)cc1F [Example 292, N-((4-((1H-1,2,4-triazol-1-yl)methyl)phenyl)sulfonyl)-5-chloro-4-(cyclopentylmethoxy)-2-fluorobenzamide] | 430 nM |
| O=C(NS(=O)(=O)c1ccc(OCc2cccnc2)cc1)c1cc(Cl)c(OCC2CCCC2)cc1F [Example 310, 5-chloro-4-(cyclopentylmethoxy)-2-fluoro-N-((4-(pyridin-3-ylmethoxy)phenyl)sulfonyl)benzamide] | 18 nM |
| O=C(NS(=O)(=O)c1ccc(Oc2ccc(Cl)cc2)cc1)c1cc(Cl)c(OCC2CCCC2)cc1F [Example 288, 5-chloro-N-((4-(4-chlorophenoxy)phenyl)sulfonyl)-4-(cyclopentylmethoxy)-2-fluorobenzamide] | 490 nM |
| C[C@H]1CCc2ccccc2N1S(=O)(=O)NC(=O)c1cc(Cl)c(OCC2CCCC2)cc1F [(S) enantiomer of Example 18] | 500 nM |

Next, values leading:

| IC50 | SMILES |
| --- | --- |
| 13 nM | O=C(NS(=O)(=O)C1CC12CCC2)c1cc(Cl)c(OCC2CCCC2)cc1F (centres unmarked) [Example 256, 5-chloro-4-(cyclopentylmethoxy)-2-fluoro-N-(spiro[2.3]hexan-1-ylsulfonyl)benzamide] |
| 510 nM | O=C(NS(=O)(=O)C1CCNC1)c1cc(Cl)c(OCC2CCCC2)cc1F (centres unmarked) [Example 322, 5-chloro-4-(cyclopentylmethoxy)-2-fluoro-N-(pyrrolidin-3-ylsulfonyl)-benzamide] |
| 560 nM | N[C@@]12C[C@@H]1CN(S(=O)(=O)NC(=O)c1cc(Cl)c(OCC3CCCC3)cc1F)C2 (single isomer, unassigned) [Example 218, 2,2,2-trifluoroacetate] |
| 390 nM | O=C(NS(=O)(=O)N1CC(O[C@@H]2CCNC2)C1)c1cc(Cl)c(OCC2CCCC2)cc1F (single isomer, unassigned) [Example 31, 2,2,2-trifluoroacetate] |
| 29 nM | O=C(NS(=O)(=O)N1CCC(OC2CN(C3CC3)C2)CC1)c1cc(Cl)c(OCC2CCCC2)cc1F [Example 12, 5-chloro-4-(cyclopentylmethoxy)-N-((4-((1-cyclopropylazetidin-3-yl)oxy)piperidin-1-yl)sulfonyl)-2-fluorobenzamide] |
| 39 nM | C[C@H]1CCCN1S(=O)(=O)NC(=O)c1cc(Cl)c(OCC2CCCC2)cc1F (single isomer, unassigned) [Example 223] |
| 750 nM | CNC1CN(S(=O)(=O)NC(=O)c2cc(Cl)c(OCC3CCCC3)cc2F)C1 [Example 226, 5-chloro-4-(cyclopentylmethoxy)-2-fluoro-N-((3-(methylamino)azetidin-1-yl)sulfonyl)benzamide formate] |
| 860 nM | O=C(NS(=O)(=O)N1CC(O[C@@H]2CCCNC2)C1)c1cc(Cl)c(OCC2CCCC2)cc1F (single isomer, unassigned) [Example 49] |
| 170 nM | CN1CCCC(OC2CCN(S(=O)(=O)NC(=O)c3cc(Cl)c(OCC4CCCC4)cc3F)CC2)C1 (centres unmarked) [Example 52, 5-chloro-4-(cyclopentylmethoxy)-2-fluoro-N-((4-((1-methylpiperidin-3-yl)oxy)piperidin-1-yl)sulfonyl) benzamide] |
| 100 nM | CO[C@H]1CC[C@H](S(=O)(=O)NC(=O)c2cc(Cl)c(OCC3CCCC3)cc2F)CC1 [Example 86, trans-5-chloro-4-(cyclopentylmethoxy)-2-fluoro-N-((4-methoxycyclohexyl)sulfonyl)benzamide] |
| 9.1 nM | O=C(NS(=O)(=O)N1CCCC1)c1cc(Cl)c(OCC2CCCC2)cc1F [Example 22, 5-chloro-4-(cyclopentylmethoxy)-2-fluoro-N-(pyrrolidin-1-ylsulfonyl)-benzamide] |
| 790 nM | O=C(NS(=O)(=O)C1CCNCC1)c1cc(Cl)c(OCC2CCCC2)cc1F [Example 324, 5-chloro-4-(cyclopentylmethoxy)-2-fluoro-N-(piperidin-4-ylsulfonyl)-benzamide] |
| 390 nM | CO[C@H]1CC[C@@H](S(=O)(=O)NC(=O)c2cc(Cl)c(OCC3CCCC3)cc2F)CC1 [Example 87, cis-5-chloro-4-(cyclopentylmethoxy)-2-fluoro-N-((4-methoxycyclohexyl)sulfonyl)benzamide] |
| 240 nM | C[C@H]1Cc2ccccc2N(S(=O)(=O)NC(=O)c2cc(Cl)c(OCC3CCCC3)cc2F)C1 (single isomer, unassigned) [Example 16] |
| 78 nM | O=C(NS(=O)(=O)N1CCCc2ccccc21)c1cc(Cl)c(OCC2CCCC2)cc1F [Example 14, 5-chloro-4-(cyclopentylmethoxy)-N-((3,4-dihydroquinolin-1(2H)-yl)sulfonyl)-2-fluorobenzamide] |
| 77 nM | O=C(NS(=O)(=O)N1CCC(O[C@H]2CCNC2)CC1)c1cc(Cl)c(OCC2CCCC2)cc1F (single isomer, unassigned) [Example 37, 2,2,2-trifluoroacetate] |
| 880 nM | NC[C@@H]1CCN(S(=O)(=O)NC(=O)c2cc(Cl)c(OCC3CCCC3)cc2F)C1 [Example 232, (S)—N-((3-(aminomethyl)pyrrolidin-1-yl)sulfonyl)-5-chloro-4-(cyclopentylmethoxy)-2-fluorobenzamide 2,2,2-trifluoroacetate] |
| 210 nM | O=C(NS(=O)(=O)N1CC2(CCO2)C1)c1cc(Cl)c(OCC2CCCC2)cc1F [Example 228, N-((1-oxa-6-azaspiro[3.3]heptan-6-yl)sulfonyl)-5-chloro-4-(cyclopentylmethoxy)-2-fluorobenzamide] |
